Test results as given in patent publication US20240417428A1, “POLYPEPTIDE FOR INHIBITING TRPM8 AND USE THEREOF” (ZHEJIANG UNIVERSITY, priority 2021, published 2024).
Where a SMILES comes first, the peptide text is derived from it.

Tests used:
TRPM4 = target: T1, TRPM4 (Mus musculus, UniProt Q7TN37, K1045A); assay: Electrophysiological recording, ligand activation of TRPM4 (TRPM4-K1045A); type: cell-based
T1 construct: expressed in transfected cells; host or cells: HEK293T
Experimental: (§1) HEK293T cells were cultured in Dulbecco's modified Eagle culture medium under a 37° C., 5% CO2 environment, 10% fetal bovine serum, penicillin (100 U/mL), and streptomycin ([…]) was needed to add into the culture medium. Transient transfection was conducted by using Lipo 2000 (Invitrogen) transfection kit and following the instruction manual.
(§2) Electrophysiological experiment recordings were performed on the cells within 24˜48 h of transient transfections. Specifically, single channel electrophysiological recordings were performed within 8 h after transfection.
(§3) Measurement of the cell currents was respectively performed in the whole-cell recording mode, inside-out recording mode or outside-out recording mode with a HEKA EPC10 amplifier. In the whole cell electrophysiological recordings, glass microelectrodes made of borosilicate material were fire-polished to a original electrode resistance of about 3-6 MΩ. Serial resistance was compensated by 60%. The whole cell electrophysiological recordings were performed at ±80 mV. For single channel electrophysiological recordings, glass microelectrodes were fire-polished to a higher resistance of 6-8 MΩ2. Current signal was sampled at 10 kHz and filtered at 2.9 kHz. Membrane potential of the cell membrane would be clamped at +80 mV. All electrophysiological recordings were performed at room temperature (22° C.) (the maximum variation is 1° C.). […]

TRPA1 = target: T2, TRPA1 (Homo sapiens, UniProt O75762); assay: Electrophysiological recording of TRPA1; type: cell-based
T2 construct: expressed in transfected cells; host or cells: HEK293T
Experimental: as §1, §2, §3

Nav1.5 = target: T3, Nav1.5 (Homo sapiens, UniProt Q14524); assay: Electrophysiological recording of Nav1.5 sodium current; type: cell-based
T3 construct: expressed in transfected cells; host or cells: HEK293T
Experimental: as §1, §2, §3

Nav1.7 = target: T4, Nav1.7 (Homo sapiens, UniProt Q15858); assay: Electrophysiological recording of Nav1.7 sodium current; type: cell-based
T4 construct: expressed in transfected cells; host or cells: HEK293T
Experimental: as §1, §2, §3

[1] = test system: oxaliplatin-induced mechanical allodynia; assay: Oxaliplatin-induced mechanical allodynia, von Frey test; type: in vivo, mice; conditions: 3.5 μg/20 μl i.pl., day 10 after oxaliplatin, compared to saline
Experimental: Adult male CD1 mice (6-8 weeks old) were used as experimental animals for behavioral experiments and primary cultures of DRG neurons. Mice were raised in the condition of 12 h light/12 h dark of light cycle with adequate standard chow and water. All animal protocols were approved by the Institutional Animal Care and Use Committee (IACUC) of Zhejiang University.
All of mice were habituated to the behavioral testing environment for 1-to-2 hours in 2-to-3 days before the behavioral testing. Single intraperitoneal (i.p.) injection of oxaliplatin (6 mg/kg body weight) was given to generate chemotherapy-induced neuropathic pain. Neuropathic pain behaviors were tested about 10 days after oxaliplatin injection.
Mechanical allodynia was assessed by measuring paw withdrawal thresholds in von Frey test. The paw withdrawal thresholds of mice in the von Frey test were tested according to Dixon'sup-down method. […] The vonFrey hairs with different stiffness were selected in turn to simulate, with 5 s interval per two simulations, and total six simulations were completed, the paw withdrawal thresholds (PWT) of mice were assessed according to the responding amount table The von Frey test was respectively performed on day 10 pre- or post-treatment with Oxaliplatin, saline or 3.5 μg/20 μL DeC-1.2 was intraplantarly injected to assess its analgesic effect on oxaliplatin-induced allodynia.

[2] = test system: CCI-induced cold allodynia; assay: Chronic constriction injury (CCI) model of neuropathic pain: cold allodynia; type: in vivo; conditions: CCI rats
From the text: Male Sprague-Dawley rats (purchased from Shanghai SLAC Laboratory Animal Co., Ltd. at the beginning of the experiment for 7 weeks, n=7-10/treatment) were used. CCI status was formed according to the method of Bennett G J and Xie Y K (Pain 1988, 33:87-107). Rats were anesthetized by intraperitoneal injection of sodium pentobarbital. The left common sciatic nerve was made to be exposed in the middle of the thigh in a state deprived of adherent tissue, and 4-0 silk thread (Ethicon Inc.) was utilized around it and four passes were loosely ligated at approximately 1-mm intervals. Sham surgery was performed in the same manner except for sciatic nerve ligation. After 1-2 weeks after CCI surgery, as documented in Tanimoto-Mori Setal. (BehavPharmacol., 19:85-90, 2008), The cold allodynia was evaluated by using a cooling plate (LHP-1700CP, TECA) with a temperature controller (Mode 13300-0, CAL Controls Inc.). The animals were acclimatized to a device consisting of a transparent acrylic box (10×12×12 cm) on a stainless steel plate (15×33 cm). The surface of the cooling plate was maintained at 10° C., and the temperature of the plate was continuously monitored with an accuracy of 0.1° C. To perform the experiment, rats were loaded on the cooling plate and the polypeptide DeC-1.2 was administered before and after a cutoff value of 120 seconds, and the paw withdrawal latency (PWL) was measured. […]

T4 sequence (Q15858 whole entry): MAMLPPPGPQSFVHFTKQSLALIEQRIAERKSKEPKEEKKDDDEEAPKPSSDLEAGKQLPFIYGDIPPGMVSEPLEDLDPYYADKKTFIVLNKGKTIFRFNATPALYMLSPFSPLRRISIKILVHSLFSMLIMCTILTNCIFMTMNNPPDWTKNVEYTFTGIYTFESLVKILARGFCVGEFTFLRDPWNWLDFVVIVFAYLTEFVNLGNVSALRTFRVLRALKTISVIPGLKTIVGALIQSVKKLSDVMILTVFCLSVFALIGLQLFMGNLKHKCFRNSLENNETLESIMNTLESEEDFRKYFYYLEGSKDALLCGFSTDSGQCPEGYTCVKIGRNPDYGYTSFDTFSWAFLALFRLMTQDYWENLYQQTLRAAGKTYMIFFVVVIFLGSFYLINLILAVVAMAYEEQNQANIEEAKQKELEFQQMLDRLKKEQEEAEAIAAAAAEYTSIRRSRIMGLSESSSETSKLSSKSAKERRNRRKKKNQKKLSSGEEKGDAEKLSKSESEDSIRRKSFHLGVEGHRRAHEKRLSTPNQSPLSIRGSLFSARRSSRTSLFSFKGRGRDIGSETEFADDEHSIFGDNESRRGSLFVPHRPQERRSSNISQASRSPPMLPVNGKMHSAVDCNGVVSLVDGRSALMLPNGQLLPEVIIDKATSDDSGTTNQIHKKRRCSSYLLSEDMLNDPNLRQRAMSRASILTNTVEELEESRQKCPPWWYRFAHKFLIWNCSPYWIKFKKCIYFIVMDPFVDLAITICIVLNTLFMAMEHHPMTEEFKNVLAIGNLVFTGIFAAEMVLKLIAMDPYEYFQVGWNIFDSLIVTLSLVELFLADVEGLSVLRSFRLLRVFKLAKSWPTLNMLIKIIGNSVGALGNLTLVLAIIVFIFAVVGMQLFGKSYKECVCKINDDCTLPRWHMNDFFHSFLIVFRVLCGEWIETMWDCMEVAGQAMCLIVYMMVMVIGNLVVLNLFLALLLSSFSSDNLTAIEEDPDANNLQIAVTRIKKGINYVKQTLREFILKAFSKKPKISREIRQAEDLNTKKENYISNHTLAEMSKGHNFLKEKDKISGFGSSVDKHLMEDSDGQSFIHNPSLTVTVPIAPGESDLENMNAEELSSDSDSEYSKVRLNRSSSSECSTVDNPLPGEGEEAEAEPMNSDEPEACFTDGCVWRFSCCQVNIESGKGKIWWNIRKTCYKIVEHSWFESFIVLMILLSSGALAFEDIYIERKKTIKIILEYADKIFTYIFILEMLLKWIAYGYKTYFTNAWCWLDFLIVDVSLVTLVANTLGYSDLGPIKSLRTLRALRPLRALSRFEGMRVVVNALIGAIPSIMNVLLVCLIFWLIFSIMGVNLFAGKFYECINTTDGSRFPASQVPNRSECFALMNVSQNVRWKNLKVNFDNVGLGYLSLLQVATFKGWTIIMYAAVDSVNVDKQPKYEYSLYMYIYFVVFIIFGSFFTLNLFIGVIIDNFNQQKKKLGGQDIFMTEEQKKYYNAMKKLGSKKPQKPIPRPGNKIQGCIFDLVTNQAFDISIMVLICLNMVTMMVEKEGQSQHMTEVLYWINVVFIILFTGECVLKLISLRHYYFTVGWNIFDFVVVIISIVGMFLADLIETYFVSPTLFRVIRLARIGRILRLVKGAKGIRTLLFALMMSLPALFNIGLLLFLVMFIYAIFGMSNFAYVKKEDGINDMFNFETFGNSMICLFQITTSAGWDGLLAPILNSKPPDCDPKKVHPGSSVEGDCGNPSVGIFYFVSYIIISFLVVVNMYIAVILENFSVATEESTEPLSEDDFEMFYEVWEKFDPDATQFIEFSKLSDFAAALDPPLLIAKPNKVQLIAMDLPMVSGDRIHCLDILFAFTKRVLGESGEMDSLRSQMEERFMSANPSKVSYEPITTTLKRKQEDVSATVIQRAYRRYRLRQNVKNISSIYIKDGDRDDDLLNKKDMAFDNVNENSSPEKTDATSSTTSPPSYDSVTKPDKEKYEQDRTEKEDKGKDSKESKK
T3 sequence (Q14524 whole entry): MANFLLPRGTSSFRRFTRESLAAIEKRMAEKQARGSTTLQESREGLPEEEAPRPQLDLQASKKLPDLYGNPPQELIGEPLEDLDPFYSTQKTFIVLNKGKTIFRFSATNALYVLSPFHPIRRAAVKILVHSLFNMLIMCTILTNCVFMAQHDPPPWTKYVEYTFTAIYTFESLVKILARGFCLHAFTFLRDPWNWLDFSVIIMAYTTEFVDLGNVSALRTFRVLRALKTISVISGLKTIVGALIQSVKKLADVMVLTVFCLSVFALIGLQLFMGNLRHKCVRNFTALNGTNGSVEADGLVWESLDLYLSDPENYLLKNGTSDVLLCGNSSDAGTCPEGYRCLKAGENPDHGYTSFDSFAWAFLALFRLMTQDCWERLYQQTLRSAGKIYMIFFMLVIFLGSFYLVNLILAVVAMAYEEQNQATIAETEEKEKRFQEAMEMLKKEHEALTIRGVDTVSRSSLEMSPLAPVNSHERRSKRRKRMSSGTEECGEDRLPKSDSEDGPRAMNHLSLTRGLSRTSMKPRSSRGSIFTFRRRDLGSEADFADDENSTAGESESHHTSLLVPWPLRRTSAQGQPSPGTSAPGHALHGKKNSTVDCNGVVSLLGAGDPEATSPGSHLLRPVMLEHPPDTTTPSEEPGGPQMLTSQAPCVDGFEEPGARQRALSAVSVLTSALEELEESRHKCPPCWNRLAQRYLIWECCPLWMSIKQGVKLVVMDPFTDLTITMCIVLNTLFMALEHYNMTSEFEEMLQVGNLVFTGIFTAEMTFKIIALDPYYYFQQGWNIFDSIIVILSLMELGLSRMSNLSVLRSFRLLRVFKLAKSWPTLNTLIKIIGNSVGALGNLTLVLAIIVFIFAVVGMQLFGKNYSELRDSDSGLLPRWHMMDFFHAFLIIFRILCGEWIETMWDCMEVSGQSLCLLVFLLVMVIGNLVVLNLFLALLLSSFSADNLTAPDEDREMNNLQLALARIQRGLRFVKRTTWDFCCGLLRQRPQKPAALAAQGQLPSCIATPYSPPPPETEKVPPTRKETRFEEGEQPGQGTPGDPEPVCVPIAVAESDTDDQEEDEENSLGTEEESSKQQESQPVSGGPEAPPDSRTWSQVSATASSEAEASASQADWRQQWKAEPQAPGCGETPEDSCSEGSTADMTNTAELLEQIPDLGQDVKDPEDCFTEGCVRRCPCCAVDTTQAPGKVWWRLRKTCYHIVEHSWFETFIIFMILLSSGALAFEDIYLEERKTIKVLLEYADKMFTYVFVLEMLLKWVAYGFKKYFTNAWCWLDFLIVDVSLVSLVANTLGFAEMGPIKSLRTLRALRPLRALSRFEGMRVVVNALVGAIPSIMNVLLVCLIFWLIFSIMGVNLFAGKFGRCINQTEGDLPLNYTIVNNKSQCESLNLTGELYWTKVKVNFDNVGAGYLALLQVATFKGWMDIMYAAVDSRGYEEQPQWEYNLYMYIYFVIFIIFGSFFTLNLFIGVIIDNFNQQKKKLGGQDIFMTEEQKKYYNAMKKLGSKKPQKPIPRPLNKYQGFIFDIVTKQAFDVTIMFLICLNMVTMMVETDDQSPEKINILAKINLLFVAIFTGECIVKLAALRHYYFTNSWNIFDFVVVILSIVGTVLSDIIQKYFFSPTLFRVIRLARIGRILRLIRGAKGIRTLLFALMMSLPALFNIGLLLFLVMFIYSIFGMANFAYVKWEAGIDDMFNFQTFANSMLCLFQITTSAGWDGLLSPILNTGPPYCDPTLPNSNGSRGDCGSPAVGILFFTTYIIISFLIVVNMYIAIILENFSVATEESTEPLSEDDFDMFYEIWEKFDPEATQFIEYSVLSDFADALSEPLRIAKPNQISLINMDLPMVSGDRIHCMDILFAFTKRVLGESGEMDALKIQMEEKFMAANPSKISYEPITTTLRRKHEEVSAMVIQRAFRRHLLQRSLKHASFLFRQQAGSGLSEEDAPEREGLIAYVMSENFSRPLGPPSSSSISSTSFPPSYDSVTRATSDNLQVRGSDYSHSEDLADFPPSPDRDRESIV
T2 sequence (O75762 whole entry, species assumed): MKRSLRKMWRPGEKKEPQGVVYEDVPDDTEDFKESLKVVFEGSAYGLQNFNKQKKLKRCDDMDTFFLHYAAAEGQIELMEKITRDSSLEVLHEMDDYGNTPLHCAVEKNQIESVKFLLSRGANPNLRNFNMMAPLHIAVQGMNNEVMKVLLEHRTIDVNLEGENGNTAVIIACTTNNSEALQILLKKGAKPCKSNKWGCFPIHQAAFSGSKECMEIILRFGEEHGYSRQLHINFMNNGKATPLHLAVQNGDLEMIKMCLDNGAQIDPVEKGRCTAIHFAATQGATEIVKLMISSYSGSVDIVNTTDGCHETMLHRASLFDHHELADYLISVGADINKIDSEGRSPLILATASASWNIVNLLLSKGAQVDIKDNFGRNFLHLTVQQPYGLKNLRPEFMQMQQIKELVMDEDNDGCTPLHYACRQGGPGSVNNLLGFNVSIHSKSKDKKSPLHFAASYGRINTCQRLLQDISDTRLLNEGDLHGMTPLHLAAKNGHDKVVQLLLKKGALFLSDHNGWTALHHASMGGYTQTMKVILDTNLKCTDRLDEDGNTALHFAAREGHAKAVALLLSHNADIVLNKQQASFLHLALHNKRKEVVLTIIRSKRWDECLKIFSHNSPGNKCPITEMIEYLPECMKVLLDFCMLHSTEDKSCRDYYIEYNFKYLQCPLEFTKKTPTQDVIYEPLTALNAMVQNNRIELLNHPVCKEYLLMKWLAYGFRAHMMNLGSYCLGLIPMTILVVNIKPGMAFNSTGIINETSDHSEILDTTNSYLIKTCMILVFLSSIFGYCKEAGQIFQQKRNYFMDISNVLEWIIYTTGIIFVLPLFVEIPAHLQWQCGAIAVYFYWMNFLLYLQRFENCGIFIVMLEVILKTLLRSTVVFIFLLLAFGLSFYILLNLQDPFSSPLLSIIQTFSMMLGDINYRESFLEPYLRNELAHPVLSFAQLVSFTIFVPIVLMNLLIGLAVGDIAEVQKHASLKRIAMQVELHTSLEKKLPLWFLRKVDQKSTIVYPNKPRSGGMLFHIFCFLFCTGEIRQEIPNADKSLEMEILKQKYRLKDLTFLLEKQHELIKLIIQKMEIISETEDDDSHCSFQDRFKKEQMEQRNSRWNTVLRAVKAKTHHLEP

## C[C@@H]1NC(=O)[C@H](CCCNC(=N)N)NC(=O)[C@H](CC(=O)O)NC(=O)[C@H](CCCNC(=N)N)NC(=O)[C@H](CCCNC(=N)N)NC(=O)[C@@H](N)CSSC[C@@H](C(=O)O)NC(=O)[C@H](CCCNC(=N)N)NC(=O)[C@H](CCC(N)=O)NC(=O)[C@H](CCCNC(=N)N)NC(=O)[C@H](Cc2ccc(O)cc2)NC(=O)[C@H](Cc2c[nH]cn2)NC(=O)[C@H](CCCNC(=N)N)NC1=O [DeC-1.2, CRRDRARHYRQRC] (HELM PEPTIDE1{C.R.R.D.R.A.R.H.Y.R.Q.R.C}$PEPTIDE1,PEPTIDE1,1:R3-13:R3$$$V2.0; N-terminus and C-terminus assumed)
TRPM4
  IC50: > 10 µM
TRPA1
  IC50: > 100 µM
  inhibition of TRPA1: none of the TRP channels and Nav channels were inhibited
Nav1.5
  IC50: > 100 µM
Nav1.5; Nav1.5
  inhibition of Nav channels: none of the TRP channels and Nav channels were inhibited
Nav1.7
  IC50: > 100 µM
Nav1.7; Nav1.7
  inhibition of Nav channels: none of the TRP channels and Nav channels were inhibited
[1]
  paw withdrawal threshold in von Frey test: did not change paw withdrawal threshold
[2]
  activity against cold allodynia (paw withdrawal latency, 10° C. cooling plate): exhibited strong activity
